From PubChem BioAssay (NCI)
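All cell lines were grown in 96-well plates and treated with compound for 48 hours. TGI: total growth inhibition.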

Legend:
Assay in all cases: DTP human tumour cell line panel, 48 h
BT-549 breast = tested on: BT-549 breast
RPMI-8226 leukemia = tested on: RPMI-8226 leukemia
A549 NSCLC = tested on: A549 NSCLC
HCT-116 colon = tested on: HCT-116 colon
KM12 colon = tested on: KM12 colon
HS 578T breast = tested on: HS 578T breast
SN12C renal = tested on: SN12C renal
OVCAR-4 ovarian = tested on: OVCAR-4 ovarian
MDA-MB-231 breast = tested on: MDA-MB-231 breast
DMS 273 small cell lung = tested on: DMS 273 small cell lung
M19-MEL melanoma = tested on: M19-MEL melanoma

COc1cc(/C=C2\C[C@H]3[C@@H]4CC=C5C[C@@H](N6CCCC6)CC[C@]5(C)[C@H]4CC[C@]3(C)[C@H]2O)cc(OC)c1OC
TGI (BT-549 breast): 30.1 µM | TGI (RPMI-8226 leukemia): 27 µM | TGI (A549 NSCLC): 33.1 µM | TGI (HCT-116 colon): 27.6 µM | TGI (KM12 colon): 23 µM | TGI (HS 578T breast): 25.2 µM | TGI (SN12C renal): 29.6 µM | TGI (OVCAR-4 ovarian): 51.1 µM | TGI (MDA-MB-231 breast): 33.6 µM

Oc1ccc2c(c1)-c1c(c3cc(O)ccc3n1CCN1CCOCC1)CC2
TGI (BT-549 breast): 38.2 µM | TGI (RPMI-8226 leukemia): > 100 µM | TGI (A549 NSCLC): > 100 µM | TGI (HCT-116 colon): 44.8 µM | TGI (KM12 colon): > 100 µM | TGI (HS 578T breast): > 100 µM | TGI (SN12C renal): > 100 µM | TGI (OVCAR-4 ovarian): 67.2 µM | TGI (MDA-MB-231 breast): 44.1 µM

C/C(O)=C/c1nc2ccccc2nc1/C=C(/C)O
TGI (BT-549 breast): > 100 µM | TGI (RPMI-8226 leukemia): 56.5 µM | TGI (A549 NSCLC): 51.3 µM | TGI (HCT-116 colon): 39.3 µM | TGI (KM12 colon): 57.3 µM | TGI (HS 578T breast): 67.5 µM | TGI (SN12C renal): 97.7 µM | TGI (OVCAR-4 ovarian): 48.5 µM | TGI (MDA-MB-231 breast): 53 µM

CCCCC1(N=[N+]=[N-])C(=O)c2cccc3c2N(CCC3)C1=O (stereo unspecified)
TGI (BT-549 breast): > 100 µM | TGI (RPMI-8226 leukemia): > 100 µM | TGI (A549 NSCLC): > 100 µM | TGI (HCT-116 colon): > 100 µM | TGI (KM12 colon): > 100 µM | TGI (HS 578T breast): > 100 µM | TGI (SN12C renal): > 100 µM | TGI (OVCAR-4 ovarian): > 100 µM | TGI (MDA-MB-231 breast): > 100 µM

COc1cc(Oc2nc3ccccc3nc2C(=O)O)cc(OC)c1OC
TGI (BT-549 breast): > 100 µM | TGI (RPMI-8226 leukemia): > 100 µM | TGI (A549 NSCLC): > 100 µM | TGI (HCT-116 colon): > 100 µM | TGI (KM12 colon): > 100 µM | TGI (HS 578T breast): > 100 µM | TGI (OVCAR-4 ovarian): > 100 µM | TGI (MDA-MB-231 breast): > 100 µM

C=CCNC1=C2C[C@@H](C)C[C@@H](OC)C(OC(=O)CCCN(C)C)[C@H](C)/C=C(\C)[C@@H](OC(N)=O)[C@H](OC)/C=C\C=C(/C)C(=O)NC(=CC1=O)C2=O (stereo partly specified)
TGI (BT-549 breast): 27.6 µM | TGI (RPMI-8226 leukemia): 44.3 µM | TGI (A549 NSCLC): 14.6 µM | TGI (HCT-116 colon): 20.4 µM | TGI (KM12 colon): 14.6 µM | TGI (HS 578T breast): 41.7 µM | TGI (SN12C renal): 12.6 µM | TGI (OVCAR-4 ovarian): 26.3 µM | TGI (MDA-MB-231 breast): 17.5 µM

CCNc1nc(N)c(C(=O)c2ccc(Cl)cc2)s1
TGI (BT-549 breast): > 100 µM | TGI (RPMI-8226 leukemia): > 100 µM | TGI (A549 NSCLC): 70.2 µM | TGI (HCT-116 colon): > 100 µM | TGI (KM12 colon): > 100 µM | TGI (HS 578T breast): 36.9 µM | TGI (SN12C renal): > 100 µM | TGI (OVCAR-4 ovarian): > 100 µM | TGI (MDA-MB-231 breast): > 100 µM

COCn1c(C)c(C)c2c(=O)oc(=O)[nH]c21
TGI (BT-549 breast): > 100 µM | TGI (RPMI-8226 leukemia): > 100 µM | TGI (A549 NSCLC): > 100 µM | TGI (HCT-116 colon): > 100 µM | TGI (KM12 colon): > 100 µM | TGI (HS 578T breast): > 100 µM | TGI (SN12C renal): > 100 µM | TGI (OVCAR-4 ovarian): > 100 µM | TGI (MDA-MB-231 breast): > 100 µM

Cc1c2c(n3c(nc4ccccc43)c1C#N)SCC2
TGI (BT-549 breast): > 10 µM | TGI (RPMI-8226 leukemia): > 10 µM | TGI (A549 NSCLC): > 10 µM | TGI (HCT-116 colon): > 10 µM | TGI (KM12 colon): > 10 µM | TGI (HS 578T breast): > 10 µM | TGI (SN12C renal): > 10 µM | TGI (OVCAR-4 ovarian): > 10 µM | TGI (MDA-MB-231 breast): > 10 µM

COc1c2occc2c(OC)c2c(=O)c(S(=O)(=O)NC(=O)Nc3ccc(Cl)cc3)coc12
TGI (BT-549 breast): > 10 µM | TGI (RPMI-8226 leukemia): > 10 µM | TGI (A549 NSCLC): > 10 µM | TGI (HCT-116 colon): > 10 µM | TGI (KM12 colon): > 10 µM | TGI (HS 578T breast): > 10 µM | TGI (SN12C renal): > 10 µM | TGI (OVCAR-4 ovarian): > 10 µM | TGI (MDA-MB-231 breast): > 10 µM

COc1cc2c(cc1OC)C1CN3C(=O)CCC3C(O)C1c1cc(OC)c(OC)cc1-2 (stereo unspecified)
TGI (BT-549 breast): > 100 µM | TGI (RPMI-8226 leukemia): > 100 µM | TGI (A549 NSCLC): > 100 µM | TGI (HCT-116 colon): > 100 µM | TGI (KM12 colon): > 100 µM | TGI (HS 578T breast): > 100 µM | TGI (SN12C renal): > 100 µM | TGI (OVCAR-4 ovarian): > 100 µM | TGI (MDA-MB-231 breast): > 100 µM

CN(C)N=Nc1ccc([N+](=O)[O-])cc1C(N)=O
TGI (RPMI-8226 leukemia): > 100 µM | TGI (A549 NSCLC): > 100 µM | TGI (DMS 273 small cell lung): > 100 µM | TGI (HCT-116 colon): > 100 µM | TGI (KM12 colon): > 100 µM | TGI (M19-MEL melanoma): > 100 µM | TGI (SN12C renal): > 100 µM | TGI (OVCAR-4 ovarian): > 100 µM

O=c1c2ccccc2oc2c1ccc1ncccc12
TGI (BT-549 breast): 63 µM | TGI (RPMI-8226 leukemia): > 100 µM | TGI (A549 NSCLC): 22.2 µM | TGI (HCT-116 colon): 45.2 µM | TGI (KM12 colon): > 100 µM | TGI (HS 578T breast): 34.8 µM | TGI (SN12C renal): > 100 µM | TGI (OVCAR-4 ovarian): 46.1 µM | TGI (MDA-MB-231 breast): > 100 µM

O=C(NCC1Nc2ccncc2S(=O)(=O)N1)c1ccc(Br)cc1 (stereo unspecified)
TGI (BT-549 breast): > 100 µM | TGI (RPMI-8226 leukemia): > 100 µM | TGI (A549 NSCLC): > 100 µM | TGI (HCT-116 colon): > 100 µM | TGI (KM12 colon): > 100 µM | TGI (HS 578T breast): 83.1 µM | TGI (SN12C renal): > 100 µM | TGI (OVCAR-4 ovarian): > 100 µM | TGI (MDA-MB-231 breast): > 100 µM

COC(=O)c1c(OC(C)=O)ccc2c1c1c(OC(C)=O)c3ccccc3c(OC(C)=O)c1n2Cc1cc(OC)cc(OC)c1
TGI (BT-549 breast): 82.1 µM | TGI (RPMI-8226 leukemia): 20.8 µM | TGI (A549 NSCLC): > 100 µM | TGI (HCT-116 colon): 78.3 µM | TGI (KM12 colon): 8.13 µM | TGI (HS 578T breast): > 100 µM | TGI (SN12C renal): > 100 µM | TGI (OVCAR-4 ovarian): > 100 µM | TGI (MDA-MB-231 breast): > 100 µM

O=C(O)Cc1ccc(Oc2nc3ccccc3nc2-c2cccs2)cc1
TGI (BT-549 breast): > 100 µM | TGI (RPMI-8226 leukemia): > 100 µM | TGI (A549 NSCLC): > 100 µM | TGI (HCT-116 colon): > 100 µM | TGI (KM12 colon): > 100 µM | TGI (HS 578T breast): > 100 µM | TGI (SN12C renal): > 100 µM | TGI (OVCAR-4 ovarian): > 100 µM | TGI (MDA-MB-231 breast): > 100 µM

CO/C(=N\N=C\c1ccc(Cl)cc1)c1ccncc1
TGI (RPMI-8226 leukemia): > 100 µM | TGI (A549 NSCLC): > 100 µM | TGI (DMS 273 small cell lung): > 100 µM | TGI (HCT-116 colon): > 100 µM | TGI (KM12 colon): > 100 µM | TGI (SN12C renal): > 100 µM | TGI (OVCAR-4 ovarian): > 100 µM

CN(Cc1c2ccccc2cc2ccccc12)S(=O)(=O)c1ccc(-c2c3nc(c(-c4ccc(S(=O)(=O)N(C)Cc5c6ccccc6cc6ccccc56)cc4)c4ccc([nH]4)c(-c4ccc(S(=O)(=O)N(C)Cc5c6ccccc6cc6ccccc56)cc4)c4nc(c(-c5ccc(S(=O)(=O)N(C)Cc6c7ccccc7cc7ccccc67)cc5)c5ccc2[nH]5)C=C4)C=C3)cc1
TGI (BT-549 breast): > 100 µM | TGI (RPMI-8226 leukemia): > 100 µM | TGI (A549 NSCLC): > 100 µM | TGI (HCT-116 colon): > 100 µM | TGI (KM12 colon): > 100 µM | TGI (HS 578T breast): > 100 µM | TGI (SN12C renal): > 100 µM | TGI (OVCAR-4 ovarian): > 100 µM | TGI (MDA-MB-231 breast): > 100 µM

Cc1oc2nc1C(=O)NCc1nc(cs1)C(=O)N[C@H](C(C)C)c1nc(cs1)C(=O)N[C@H]2C
TGI (BT-549 breast): > 100 µM | TGI (RPMI-8226 leukemia): 54.4 µM | TGI (A549 NSCLC): > 100 µM | TGI (HCT-116 colon): > 100 µM | TGI (KM12 colon): > 100 µM | TGI (HS 578T breast): > 100 µM | TGI (SN12C renal): > 100 µM | TGI (OVCAR-4 ovarian): > 100 µM | TGI (MDA-MB-231 breast): > 100 µM

Cc1cn(C2CC(O)C(CO)C2C)c(=O)[nH]c1=O (stereo unspecified)
TGI (A549 NSCLC): > 100 µM | TGI (DMS 273 small cell lung): > 100 µM | TGI (HCT-116 colon): > 100 µM | TGI (KM12 colon): > 100 µM | TGI (M19-MEL melanoma): > 100 µM | TGI (SN12C renal): > 100 µM | TGI (OVCAR-4 ovarian): > 100 µM

Cn1ccnc1CCc1ccc(F)cc1F
TGI (BT-549 breast): > 100 µM | TGI (RPMI-8226 leukemia): > 100 µM | TGI (A549 NSCLC): > 100 µM | TGI (KM12 colon): > 100 µM | TGI (HS 578T breast): > 100 µM | TGI (SN12C renal): > 100 µM | TGI (OVCAR-4 ovarian): > 100 µM | TGI (MDA-MB-231 breast): > 100 µM

[O-][n+]1onc2c3nn(-c4ccccc4)nc3ccc21
TGI (BT-549 breast): > 100 µM | TGI (RPMI-8226 leukemia): 53.3 µM | TGI (A549 NSCLC): > 100 µM | TGI (HCT-116 colon): > 100 µM | TGI (KM12 colon): 48.5 µM | TGI (HS 578T breast): > 88.6 µM | TGI (SN12C renal): > 100 µM | TGI (OVCAR-4 ovarian): > 100 µM | TGI (MDA-MB-231 breast): > 100 µM
